Data taken from US9616058B2, “Potent selective LSD1 inhibitors and dual LSD1/MAO-B inhibitors for antiviral use” (Oryzon Genomics, S.A., priority 2010, dated 2017).

Key:
Assay type in all cases: biochemical
[1] = target: T1, Human recombinant LSD1 protein (Homo sapiens, UniProt O60341); experiment: LSD1 demethylase inhibition assay (Amplex Red peroxide/peroxidase-coupled); settings: Ki (IC50) estimated at half of the maximum activity
T1 construct: purchased BPS Bioscience Inc
From the text: The compounds of the invention can be tested for their ability to inhibit LSD1.
The conversion of the Amplex®.

[2] = target: T2, Human recombinant monoamine oxidase MAO-A (Homo sapiens, UniProt P21397); experiment: Monoamine oxidase assay (kynuramine fluorescence), MAO-A; settings: Ki measured at Vmax/2
T2 construct: purchased Sigma Aldrich
T2 sequence (P21397 1-527): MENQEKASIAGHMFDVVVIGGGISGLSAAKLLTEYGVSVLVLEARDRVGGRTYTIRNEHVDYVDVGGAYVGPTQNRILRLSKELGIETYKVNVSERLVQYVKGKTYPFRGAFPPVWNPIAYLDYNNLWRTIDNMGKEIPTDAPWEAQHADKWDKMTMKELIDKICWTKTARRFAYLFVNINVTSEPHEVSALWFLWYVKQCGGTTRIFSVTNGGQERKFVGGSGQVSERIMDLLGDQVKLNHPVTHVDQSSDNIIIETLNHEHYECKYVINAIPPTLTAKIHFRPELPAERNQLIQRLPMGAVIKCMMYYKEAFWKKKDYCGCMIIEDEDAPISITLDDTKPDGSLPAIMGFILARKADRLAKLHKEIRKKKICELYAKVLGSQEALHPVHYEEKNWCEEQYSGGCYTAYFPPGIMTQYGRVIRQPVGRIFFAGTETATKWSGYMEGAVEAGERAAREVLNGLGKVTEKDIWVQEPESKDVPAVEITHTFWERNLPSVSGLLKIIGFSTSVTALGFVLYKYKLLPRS
Description: (§1) MOAs catalyze the oxidative deamination of 1°, 2′ and 3° amines.
(§2) The Ki of each inhibitor was measure at Vmax/2.

[3] = target: T3, Human recombinant monoamine oxidase MAO-B (Homo sapiens, UniProt P27338); experiment: Monoamine oxidase assay (kynuramine fluorescence), MAO-B; settings: Ki measured at Vmax/2
T3 construct: purchased Sigma Aldrich
T3 sequence (P27338 1-520): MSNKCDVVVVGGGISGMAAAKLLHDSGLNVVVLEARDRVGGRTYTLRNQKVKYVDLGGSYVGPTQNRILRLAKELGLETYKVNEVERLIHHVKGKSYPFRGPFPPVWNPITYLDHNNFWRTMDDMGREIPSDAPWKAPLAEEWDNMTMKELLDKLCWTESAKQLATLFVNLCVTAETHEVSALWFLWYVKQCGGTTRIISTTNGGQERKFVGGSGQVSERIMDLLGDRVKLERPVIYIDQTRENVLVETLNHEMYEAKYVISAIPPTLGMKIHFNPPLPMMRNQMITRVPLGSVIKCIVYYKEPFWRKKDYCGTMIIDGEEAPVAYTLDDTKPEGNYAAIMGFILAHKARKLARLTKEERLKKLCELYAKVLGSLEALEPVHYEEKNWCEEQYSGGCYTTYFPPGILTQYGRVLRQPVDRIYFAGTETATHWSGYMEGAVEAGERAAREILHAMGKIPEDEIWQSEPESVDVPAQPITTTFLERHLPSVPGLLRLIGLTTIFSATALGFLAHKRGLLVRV
Description: as §1, §2

Ki [1] [µM]	Ki [2] [µM]	Ki [3] [µM]	SMILES
< 1	> 40	> 40	N[C@@H]1CCN(CCN[C@H]2CC2c2ccccc2)C1 (some centres unmarked) [1(A)]
< 1	> 30	> 30	c1ccc(C2C[C@@H]2NCCN2CCNCC2)cc1 (some centres unmarked) [1(B)]
	20 to 30		NC(=O)CN[C@H]1CC1c1ccc(OCc2cc(F)cc(F)c2)cc1 (some centres unmarked) [2(B)]
	~10		c1ccc(C2C[C@@H]2NCCNC2CC2)cc1 (some centres unmarked) [Compound 2(A)]
